Results reported in ChEMBL document CHEMBL1145159 (J Med Chem, 2005).
“And” between values parts separate entries of the source, which are not always exact repeats. Identical values can stand only once. Square brackets hold non-standard residues; d marks the D form. Peptide text beside a SMILES is read from it. Hyp = O=C(O)[C@@H]1C[C@@H](O)CN1

Assays:
[1] = target: T1, Neuronal acetylcholine receptor; alpha3/beta2 (Homo sapiens, UniProt P17787+P32297); experiment: Inhibitory concentration against Nicotinic acetylcholine receptor alpha3-beta2; type: protein-complex assay
T1 sequence (P17787 whole entry): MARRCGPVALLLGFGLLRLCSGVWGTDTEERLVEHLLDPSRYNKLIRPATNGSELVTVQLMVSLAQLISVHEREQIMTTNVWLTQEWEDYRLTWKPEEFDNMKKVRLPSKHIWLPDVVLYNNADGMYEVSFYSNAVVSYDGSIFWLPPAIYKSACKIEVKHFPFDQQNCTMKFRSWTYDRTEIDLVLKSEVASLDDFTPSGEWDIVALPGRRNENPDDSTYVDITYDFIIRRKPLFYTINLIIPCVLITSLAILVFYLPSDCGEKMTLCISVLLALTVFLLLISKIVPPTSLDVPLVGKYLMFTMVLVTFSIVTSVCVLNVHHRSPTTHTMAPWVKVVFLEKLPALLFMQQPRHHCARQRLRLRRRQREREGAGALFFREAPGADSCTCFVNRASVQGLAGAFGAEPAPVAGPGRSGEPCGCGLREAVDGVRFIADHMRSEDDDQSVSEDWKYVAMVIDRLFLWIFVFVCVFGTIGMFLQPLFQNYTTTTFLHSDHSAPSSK
T1 sequence (P32297 whole entry): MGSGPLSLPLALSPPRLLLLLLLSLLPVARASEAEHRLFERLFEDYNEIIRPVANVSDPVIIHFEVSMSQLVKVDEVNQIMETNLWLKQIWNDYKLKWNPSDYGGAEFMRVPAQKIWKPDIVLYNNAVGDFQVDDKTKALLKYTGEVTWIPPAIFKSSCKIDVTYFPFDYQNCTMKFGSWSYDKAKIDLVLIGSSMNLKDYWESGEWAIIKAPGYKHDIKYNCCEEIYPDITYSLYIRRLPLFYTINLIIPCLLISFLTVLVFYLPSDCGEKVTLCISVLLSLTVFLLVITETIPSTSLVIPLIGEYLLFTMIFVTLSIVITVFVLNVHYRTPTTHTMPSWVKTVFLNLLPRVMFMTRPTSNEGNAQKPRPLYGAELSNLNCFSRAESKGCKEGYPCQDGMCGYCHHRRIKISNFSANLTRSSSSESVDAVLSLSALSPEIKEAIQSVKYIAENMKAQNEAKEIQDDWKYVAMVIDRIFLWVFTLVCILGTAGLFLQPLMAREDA

[2] = Inhibitory concentration against Nicotinic acetylcholine receptor alpha2-beta4 expressed in xenopus oocytes; type: cell-based; settings: oocyte
[3] = target: T2, Neuronal acetylcholine receptor; alpha3/beta4 (Homo sapiens, UniProt P30926+P32297); experiment: Inhibitory concentration against Nicotinic acetylcholine receptor alpha3-beta4; type: protein-complex assay
T2 sequence (P30926 whole entry): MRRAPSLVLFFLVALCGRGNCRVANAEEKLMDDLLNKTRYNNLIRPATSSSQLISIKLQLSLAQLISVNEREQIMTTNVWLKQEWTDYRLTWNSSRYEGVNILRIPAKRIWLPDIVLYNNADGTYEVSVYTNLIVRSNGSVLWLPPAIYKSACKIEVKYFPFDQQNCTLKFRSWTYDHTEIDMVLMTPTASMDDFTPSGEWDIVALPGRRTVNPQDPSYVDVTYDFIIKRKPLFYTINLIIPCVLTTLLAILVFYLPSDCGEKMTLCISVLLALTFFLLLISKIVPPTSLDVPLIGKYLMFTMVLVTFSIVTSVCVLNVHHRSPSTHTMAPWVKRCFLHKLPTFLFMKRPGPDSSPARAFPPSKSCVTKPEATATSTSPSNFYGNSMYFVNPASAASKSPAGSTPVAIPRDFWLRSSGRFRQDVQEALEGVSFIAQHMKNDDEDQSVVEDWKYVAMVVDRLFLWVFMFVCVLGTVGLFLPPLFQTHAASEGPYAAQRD
T2 sequence (P32297 whole entry): as the sequence (P32297 whole entry) above

[4] = Inhibitory concentration against Nicotinic acetylcholine receptor alpha3-beta4 expressed in xenopus oocytes; type: cell-based; settings: oocyte
[5] = target: T1, Neuronal acetylcholine receptor; alpha3/beta2; experiment: Inhibitory concentration against Nicotinic acetylcholine receptor alpha3-beta2 expressed in xenopus oocytes; type: cell-based, Oocyte
[6] = target: Neuronal acetylcholine receptor; alpha2/beta4 (Homo sapiens, UniProt P30926+Q15822); experiment: Inhibitory concentration against Nicotinic acetylcholine receptor alpha2-beta4; type: protein-complex assay
Neuronal acetylcholine receptor; alpha2/beta4, sequence (P30926 whole entry): as the sequence (P30926 whole entry) above
Neuronal acetylcholine receptor; alpha2/beta4, sequence (Q15822 whole entry): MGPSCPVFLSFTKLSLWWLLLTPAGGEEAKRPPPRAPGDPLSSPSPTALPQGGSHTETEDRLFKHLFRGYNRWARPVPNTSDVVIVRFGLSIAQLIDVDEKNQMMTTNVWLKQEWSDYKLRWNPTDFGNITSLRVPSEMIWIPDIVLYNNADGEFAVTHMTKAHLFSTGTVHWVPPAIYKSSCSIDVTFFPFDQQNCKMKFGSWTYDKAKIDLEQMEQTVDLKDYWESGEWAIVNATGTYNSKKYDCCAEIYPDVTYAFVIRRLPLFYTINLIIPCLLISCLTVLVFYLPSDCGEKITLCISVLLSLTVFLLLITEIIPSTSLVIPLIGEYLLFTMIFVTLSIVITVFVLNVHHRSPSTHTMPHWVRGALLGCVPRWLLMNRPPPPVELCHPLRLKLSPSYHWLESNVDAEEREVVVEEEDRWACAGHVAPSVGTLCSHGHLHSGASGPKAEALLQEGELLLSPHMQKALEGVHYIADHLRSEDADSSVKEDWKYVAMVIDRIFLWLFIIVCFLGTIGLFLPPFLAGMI

[7] = target: T3, Neuronal acetylcholine receptor subunit alpha-7 (Homo sapiens, UniProt P36544); experiment: Inhibitory concentration against Nicotinic acetylcholine receptor alpha-7 expressed in xenopus oocytes; type: cell-based; settings: xenopus oocyte
T3 sequence (P36544 whole entry): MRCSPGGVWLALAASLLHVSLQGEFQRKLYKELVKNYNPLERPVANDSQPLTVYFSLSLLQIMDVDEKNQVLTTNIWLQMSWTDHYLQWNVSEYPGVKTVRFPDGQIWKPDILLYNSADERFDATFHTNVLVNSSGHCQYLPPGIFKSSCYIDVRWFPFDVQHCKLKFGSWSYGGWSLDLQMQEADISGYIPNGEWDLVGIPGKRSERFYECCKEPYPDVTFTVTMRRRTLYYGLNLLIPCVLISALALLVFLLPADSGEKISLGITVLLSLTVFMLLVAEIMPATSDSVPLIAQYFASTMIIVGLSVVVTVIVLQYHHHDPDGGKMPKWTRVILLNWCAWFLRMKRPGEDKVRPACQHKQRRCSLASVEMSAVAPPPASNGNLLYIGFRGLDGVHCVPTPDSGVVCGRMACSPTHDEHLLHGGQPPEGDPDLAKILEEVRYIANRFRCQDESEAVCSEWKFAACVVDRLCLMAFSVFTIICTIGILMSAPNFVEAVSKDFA

[8] = target: T4, Neuronal acetylcholine receptor; alpha4/beta2 (Homo sapiens, UniProt P17787+P43681); experiment: (§1) Inhibitory concentration against Nicotinic acetylcholine receptor alpha4-beta2; type: protein-complex assay
T4 sequence (P17787 whole entry): as the sequence (P17787 whole entry) above
T4 sequence (P43681 whole entry): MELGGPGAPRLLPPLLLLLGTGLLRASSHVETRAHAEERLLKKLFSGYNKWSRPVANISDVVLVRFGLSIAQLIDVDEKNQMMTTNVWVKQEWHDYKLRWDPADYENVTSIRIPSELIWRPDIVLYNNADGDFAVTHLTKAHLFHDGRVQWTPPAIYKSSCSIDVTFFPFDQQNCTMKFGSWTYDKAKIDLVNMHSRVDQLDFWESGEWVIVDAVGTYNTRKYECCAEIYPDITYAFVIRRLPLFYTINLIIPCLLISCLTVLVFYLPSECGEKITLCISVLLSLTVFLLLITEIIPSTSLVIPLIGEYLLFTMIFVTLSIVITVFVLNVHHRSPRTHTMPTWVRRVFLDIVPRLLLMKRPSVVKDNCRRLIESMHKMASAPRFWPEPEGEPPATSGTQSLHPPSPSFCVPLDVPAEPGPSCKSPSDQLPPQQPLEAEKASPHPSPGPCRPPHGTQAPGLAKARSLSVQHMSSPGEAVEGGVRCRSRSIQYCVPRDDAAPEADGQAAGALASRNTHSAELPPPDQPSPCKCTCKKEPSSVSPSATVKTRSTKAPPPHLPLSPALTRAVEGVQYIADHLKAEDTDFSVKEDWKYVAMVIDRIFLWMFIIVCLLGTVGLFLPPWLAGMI

[9] = target: T3, Neuronal acetylcholine receptor subunit alpha-7; experiment: Inhibitory concentration against Nicotinic acetylcholine receptor alpha 7
[10] = target: T5, Neuronal acetylcholine receptor; alpha4/beta4 (Homo sapiens, UniProt P30926+P43681); experiment: Ki or IC50 concentration against Nicotinic acetylcholine receptor alpha4-beta4 expressed in xenopus oocytes; type: cell-based; settings: Oocyte
T5 sequence (P30926 whole entry): as the sequence (P30926 whole entry) above
T5 sequence (P43681 whole entry): as the sequence (P43681 whole entry) above

[11] = target: T4, Neuronal acetylcholine receptor; alpha4/beta2; experiment: Ki or IC50 concentration against Nicotinic acetylcholine receptor alpha4-beta2 expressed in xenopus oocytes; type: cell-based; settings: Oocyte
[12] = target: T4, Neuronal acetylcholine receptor; alpha4/beta2; experiment: Maximal response against Nicotinic acetylcholine receptor alpha4-beta2 expressed in HEK293 cells; type: cell-based
[13] = Effective concentration against Nicotinic acetylcholine receptor alpha3-beta4 expressed in xenopus oocytes; type: cell-based; settings: oocyte
[14] = target: T1, Neuronal acetylcholine receptor; alpha3/beta2; experiment: Maximal response against Nicotinic acetylcholine receptor alpha3-beta2 expressed in HEK293 cells; type: cell-based
[15] = target: Neuronal acetylcholine receptor subunit alpha-3 (Homo sapiens) (UniProt P32297); experiment: Maximal response against [Ca2+] permeability and [Ca2+] modulation of alpha-3 nicotinic receptor
Neuronal acetylcholine receptor subunit alpha-3 (Homo sapiens), sequence (P32297 whole entry): as the sequence (P32297 whole entry) above

[16] = Effective concentration against Nicotinic acetylcholine receptor alpha4-beta4 expressed in xenopus oocytes; type: cell-based; settings: oocyte
[17] = Effective concentration against Nicotinic acetylcholine receptor alpha2-beta4 expressed in xenopus oocytes; type: cell-based; settings: oocyte
[18] = target: T2, Neuronal acetylcholine receptor; alpha3/beta4; experiment: Maximal response against Nicotinic acetylcholine receptor alpha3-beta4 expressed in HEK293 cells; type: cell-based
[19] = Effective concentration against Nicotinic acetylcholine receptor alpha4-beta2 expressed in xenopus oocytes; type: cell-based; settings: oocyte
[20] = target: T3, Neuronal acetylcholine receptor subunit alpha-7; experiment: Maximal response against Nicotinic acetylcholine receptor alpha 7
[21] = target: T2, Neuronal acetylcholine receptor; alpha3/beta4; experiment: Inhibitory concentration against Nicotinic acetylcholine receptor alpha3-beta4; Range is 0.7-1 nM; type: protein-complex assay
[22] = target: Neuronal acetylcholine receptor; alpha3/alpha6/beta2/beta3 (Homo sapiens, UniProt P17787+P32297+Q05901+Q15825); experiment: Inhibitory concentration against Nicotinic acetylcholine receptor alpha-6-alpha-3-beta-2-beta-3; Range is 0.7-1 nM; type: protein-complex assay
Neuronal acetylcholine receptor; alpha3/alpha6/beta2/beta3, sequence (P17787 whole entry): as the sequence (P17787 whole entry) above
Neuronal acetylcholine receptor; alpha3/alpha6/beta2/beta3, sequence (P32297 whole entry): as the sequence (P32297 whole entry) above
Neuronal acetylcholine receptor; alpha3/alpha6/beta2/beta3, sequence (Q15825 whole entry): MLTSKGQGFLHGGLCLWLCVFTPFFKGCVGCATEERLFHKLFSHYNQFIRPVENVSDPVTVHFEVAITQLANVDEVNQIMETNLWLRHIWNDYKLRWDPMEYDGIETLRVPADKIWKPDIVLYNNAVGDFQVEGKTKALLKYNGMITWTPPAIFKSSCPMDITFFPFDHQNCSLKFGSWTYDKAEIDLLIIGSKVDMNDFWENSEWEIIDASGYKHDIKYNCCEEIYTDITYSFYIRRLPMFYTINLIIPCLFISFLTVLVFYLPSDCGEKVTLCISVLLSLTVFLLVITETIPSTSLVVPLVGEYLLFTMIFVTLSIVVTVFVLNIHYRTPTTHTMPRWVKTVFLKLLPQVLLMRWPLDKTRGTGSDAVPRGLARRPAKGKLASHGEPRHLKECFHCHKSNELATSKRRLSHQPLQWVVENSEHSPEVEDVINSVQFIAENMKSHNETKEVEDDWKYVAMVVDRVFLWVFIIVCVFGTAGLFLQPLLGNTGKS
Neuronal acetylcholine receptor; alpha3/alpha6/beta2/beta3, sequence (Q05901 whole entry): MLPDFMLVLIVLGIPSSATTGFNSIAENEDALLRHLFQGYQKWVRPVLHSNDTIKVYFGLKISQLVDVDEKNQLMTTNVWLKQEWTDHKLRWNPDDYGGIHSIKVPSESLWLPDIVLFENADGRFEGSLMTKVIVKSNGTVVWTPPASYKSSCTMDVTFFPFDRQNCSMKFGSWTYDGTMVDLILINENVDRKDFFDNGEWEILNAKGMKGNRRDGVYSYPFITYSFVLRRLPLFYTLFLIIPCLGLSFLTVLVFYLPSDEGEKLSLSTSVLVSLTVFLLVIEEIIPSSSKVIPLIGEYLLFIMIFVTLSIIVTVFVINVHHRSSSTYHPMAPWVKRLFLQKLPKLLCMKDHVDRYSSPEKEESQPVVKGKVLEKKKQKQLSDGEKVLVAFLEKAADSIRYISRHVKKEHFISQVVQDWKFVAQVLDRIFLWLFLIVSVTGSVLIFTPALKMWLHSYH

[23] = target: T1, Neuronal acetylcholine receptor; alpha3/beta2; experiment: Inhibitory concentration against Nicotinic acetylcholine receptor alpha3-beta2; Range is 0.5-8 nM; type: protein-complex assay
[24] = Inhibitory concentration against Nicotinic acetylcholine receptor alpha-6-alpha-4-beta-4; Range is 0.7-1 nM
[25] = Inhibitory concentration against Nicotinic acetylcholine receptor alpha-6-alpha-3-beta-2; Range is 0.5-8 nM; design: species or system Homo sapiens
[26] = target: T4, Neuronal acetylcholine receptor; alpha4/beta2; experiment: Inhibitory concentration against Nicotinic acetylcholine receptor alpha4-beta2; Range is 0.5-8 nM; type: protein-complex assay
[27] = target: T3, Neuronal acetylcholine receptor subunit alpha-7; experiment: Inhibitory concentration against Nicotinic acetylcholine receptor alpha7; Range is 0.5-8 nM
[28] = target: T4, Neuronal acetylcholine receptor; alpha4/beta2; experiment: as §1; type: protein-complex assay; remark: listed apart in the source
[29] = target: Neuronal acetylcholine receptor; alpha2/beta2 (Homo sapiens, UniProt P17787+Q15822); experiment: Inhibitory concentration against Nicotinic acetylcholine receptor alpha2-beta2; type: protein-complex assay
Neuronal acetylcholine receptor; alpha2/beta2, sequence (P17787 whole entry): as the sequence (P17787 whole entry) above
Neuronal acetylcholine receptor; alpha2/beta2, sequence (Q15822 whole entry): as the sequence (Q15822 whole entry) above

[30] = target: T5, Neuronal acetylcholine receptor; alpha4/beta4; experiment: Inhibitory concentration against Nicotinic acetylcholine receptor alpha4-beta4; Range is 3-5 nM; type: protein-complex assay
[31] = target: T1, Neuronal acetylcholine receptor; alpha3/beta2; experiment: Inhibitory concentration against Nicotinic acetylcholine receptor alpha3-beta2; Range is 3-5 nM; type: protein-complex assay
[32] = target: T3, Neuronal acetylcholine receptor subunit alpha-7; experiment: Inhibitory concentration against Nicotinic acetylcholine receptor alpha-7 Range is 3-5 nM
[33] = target: T4, Neuronal acetylcholine receptor; alpha4/beta2; experiment: Inhibitory concentration against Nicotinic acetylcholine receptor alpha4-beta2; Range is 3-5 nM; type: protein-complex assay
[34] = target: T2, Neuronal acetylcholine receptor; alpha3/beta4; experiment: Inhibitory concentration against Nicotinic acetylcholine receptor alpha3-beta4; Range is 3-5 nM; type: protein-complex assay

For COc1cc2c3cc1Oc1cccc(c1O)C[C@@H]1c4c(cc(OC)c(O)c4Oc4ccc(cc4)CC3N(C)CC2)CC[N+]1(C)C (stereo partly specified), the IC50 [1] was 230 nM, the IC50 [2] was 4200 nM and the IC50 [3] was 4100 nM and 730 nM. The IC50 [4] was 2200 nM, the IC50 [5] was 2400 nM and the IC50 [6] was 2300 nM and 4000 nM. The Concentration [7] was 3.1 µM, the Concentration [8] was 7.6 µM and the IC50 [9] was 14700 nM. For the same molecule, the Concentration [10] was 0.21 µM and the Concentration [11] was 3.2 µM.

For CC(=O)OCC[N+](C)(C)C [ACETYLCHOLINE], the Rmax [12] was 172%, the EC50 [13] was 203000 nM and the Rmax [14] was 150%. It also gave an Rmax [15] of 100%, an EC50 [16] of 20000 nM and an EC50 [17] of 83000 nM. The Rmax [18] was 100%, the EC50 [19] was 68000 nM and the Rmax [20] was 97%.

With CC[C@H](C)[C@H](NC(=O)[C@H](CCC(N)=O)NC(=O)[C@@H]1CCCN1C(=O)[C@H](CC(N)=O)NC(=O)[C@H](Cc1cnc[nH]1)NC(=O)[C@@H](NC(=O)[C@@H](NC(=O)[C@H](CS)NC(=O)[C@@H](NC(=O)[C@@H]1CCCN1C(=O)[C@H](CC(N)=O)NC(=O)[C@H](CO)NC(=O)[C@H](CS)NC(=O)[C@H](CS)NC(=O)[C@@H]1CCCN1C(=O)[C@@H](N)CC(=O)O)C(C)C)[C@@H](C)O)C(C)C)C(=O)N[C@@H](CS)C(N)=O (H-DPCCSNPVCTVHNPQIC-NH2) the IC50 [21] was 1 nM and the IC50 [22] was 1 nM.

With CC(C)C[C@H](NC(=O)[C@H](CC(N)=O)NC(=O)[C@H](CO)NC(=O)[C@H](Cc1c[nH]cn1)NC(=O)[C@H](CCC(=O)O)NC(=O)[C@H](CC(C)C)NC(=O)[C@H](Cc1c[nH]cn1)NC(=O)[C@H](CS)NC(=O)[C@@H](NC(=O)[C@@H]1CCCN1C(=O)[C@H](CC(N)=O)NC(=O)[C@H](CO)NC(=O)[C@H](CS)NC(=O)[C@H](CS)NC(=O)CN)C(C)C)C(=O)N[C@@H](CS)C(N)=O the IC50 [23] was 8 nM, the IC50 [24] was 8 nM and the IC50 [25] was 8 nM. The IC50 [26] was 8 nM and the IC50 [27] was 8 nM.

CC(C)C[C@H](NC(=O)[C@H](CO)NC(=O)[C@H](CS)NC(=O)[C@H](CS)NC(=O)CN)C(=O)N1CCC[C@H]1C(=O)N1CCC[C@H]1C(=O)N[C@@H](CS)C(=O)N[C@@H](C)C(=O)N[C@@H](C)C(=O)N[C@@H](CC(N)=O)C(=O)N[C@@H](CC(N)=O)C(=O)N1CCC[C@H]1C(=O)N[C@@H](CC(=O)O)C(=O)N[C@@H](Cc1ccc(O)cc1)C(=O)N[C@@H](CS)C(N)=O (H-GCCSLPPCAANNPDYC-NH2) gave an IC50 [1] of 9.6 nM, an IC50 [28] of 9.6 nM and an IC50 [29] of 9.6 nM. The IC50 [9] was 9.6 nM.

CC[C@H](C)[C@H](N)C(=O)N[C@@H](CCCN=C(N)N)C(=O)N[C@@H](CC(=O)O)C(=O)N[C@@H](CCC(=O)O)C(=O)N[C@@H](CS)C(=O)N[C@@H](CS)C(=O)N[C@@H](CO)C(=O)N[C@@H](CC(N)=O)C(=O)N1CCC[C@H]1C(=O)N[C@@H](C)C(=O)N[C@@H](CS)C(=O)N[C@@H](CCCN=C(N)N)C(=O)N[C@H](C(=O)N[C@@H](CC(N)=O)C(=O)N[C@@H](CC(N)=O)C(=O)N1C[C@H](O)C[C@H]1C(=O)N[C@@H](Cc1c[nH]cn1)C(=O)N[C@H](C(=O)N[C@@H](CS)C(N)=O)C(C)C)C(C)C (H-IRDECCSNPACRVNN[Hyp]HVC-NH2) showed an IC50 [30] of 5 nM, an IC50 [31] of 5 nM and an IC50 [32] of 5 nM. The IC50 [33] was 5 nM and the IC50 [34] was 5 nM.
